pEC50: −log10 of the molar value. Converted amounts (≈) assume the structure as drawn.
How the values were obtained:
[1] = system: SARS-CoV-2/human/Denmark/DK-AHH1/2020; test: microbe, parasite or virus in culture; format: cell-based
[2] = system: SARS-CoV-2/human/Denmark/DK-AHH1/2020; test: Concentration–response treatment antiviral assay in VeroE6 cells (spike immunostaining); format: cell-based; settings: for EC50 / concentration at which almost / close to complete virus inhibition was achieved: VeroE6 cells; for EC50: added 1 h post infection, 2-day incubation, read-out: EC50 Treatment assay; for concentration at which almost / close to complete virus inhibition was achieved: treatment assay
[3] = system: SARS-CoV-2/human/Denmark/DK-AHH1/2020; test: Concentration–response pretreatment antiviral assay in VeroE6 cells (spike immunostaining); format: cell-based; settings: for EC50: Severe acute respiratory syndrome coronavirus 2, Vero C1008, added 1.5 h prior to infection, 2-day incubation
[4] = system: SARS-CoV-2/human/Denmark/DK-AHH1/2020; test: microbe, parasite or virus in culture; format: cell-based; settings: for EC50: Severe acute respiratory syndrome coronavirus 2, 48 h
in vitro = settings: African green monkey
Procedure: (§1) To evaluate cytotoxic effects of the tested extracts, compounds, and diluents (DMSO), cell viability was monitored using the CellTiter 96 AQueous One Solution Cell Proliferation Assay (Promega, Madison, WI, USA). VeroE6 cells, Huh7.5 cells or A549-hACE2 cells were plated at 10,000, 8000 or 10,000 cells per well of flat bottom 96-well plates, respectively (Thermo Fisher Scientific, Roskilde, Denmark). The next day, medium was exchanged to contain specified concentrations of extracts or compounds or dilutions of DMSO adding 100 µL per well. Each concentration or dilution was tested in 3 replicates; at least 6 nontreated control wells were included in the assay. For VeroE6 cells and A549-hACE2 cells, after 48 ± 2 h, and for Huh7.5 cells, after 72 ± 2 h of incubation at 37 °C and 5% CO2, 20 µL CellTiter 96 AQueous One Solution Reagent was added per well and plates were incubated for 1.5 to 2 h at 37 °C and 5% CO2, prior to recording absorbance at 492 nm using a FLUOstar OPTIMA 96-well plate reader (BMG LABTECH, Offenburg, Germany). Absorbance recorded in each well was related to the average absorbance of nontreated control wells to calculate the percentage of cell viability. Datapoints included in figures are means of triplicates from one independent experiment with SEM. Sigmoidal dose response curves were fitted and median cytotoxic concentration (CC50) values were calculated with GraphPad Prism 8.0.0 using a bottom constraint of 0 and the formula Y = Top/(1 + 10^((LogCC50-X) * HillSlope)) as further specified in Figures S5, S7, and S9.

[5] = Cell viability assay (CellTiter 96 AQueous One) in Huh7.5 cells; settings: human
Procedure: as §1

SARS-CoV-2 = test: Treatment assays summarised over different cell types (VeroE6, Huh7.5, A549-hACE2); format: cell-based; settings: Severe acute respiratory syndrome coronavirus 2, VeroE6, Huh7.5, A549-hACE2 cells, read-out: range of 50% effective concentrations (EC50) in different cell types
[6] = Cell viability assay (CellTiter 96 AQueous One) in A549-hACE2 cells; format: cell-based; settings: human, no infection
[7] = Cell viability assay (CellTiter 96 AQueous One) in VeroE6 cells; settings: African green monkey
Procedure: as §1

[8] = system: SARS-CoV-2/human/Germany/BavPat 1/2020; test: Plaque reduction antiviral assay (pretreatment) in VeroE6 cells; format: cell-based; settings: addition prior to virus addition
[9] = animal studies; single dose; cited from earlier work
[10] = system: SARS-CoV-2/human/Denmark/DK-AHH1/2020; test: Time-of-addition experiment with artesunate in A549-hACE2 cells; format: cell-based; settings: for inhibition at 14 µg/mL: read-out: inhibition of viral infection
[11] = system: SARS-CoV-2 isolate from Wuhan; design: method as in earlier work; settings: VeroE6 cells, assay terminated 24 h post infection, ref 22 (Cao et al.); cited from earlier work
[12] = Severe acute respiratory syndrome coronavirus 2, Vero C1008
[13] = Severe acute respiratory syndrome coronavirus 2, 72 h, Huh7.5 cells, treatment assay, added directly after inoculation, 3-day incubation, read-out: EC50
[14] = A549-hACE2 cells, treatment assay, added directly after inoculation, 2-day incubation, read-out: EC50

Row | SMILES | EC50 [2, 12] [µg/mL] | concentration at which almost / close to complete virus inhibition was achieved [2] [µg/mL] | EC50 [3] [µg/mL] | CC50 at 72 h [5] [µg/mL] | EC50 (SARS-CoV-2) [µg/mL] | CC50 at 48 h [6] [µg/mL] | CC50 at 48 h [7] [µg/mL] | EC50 [1, 13] [µg/mL] | EC50 [4, 14] [µg/mL] | further results
1 | CO[C@H]1O[C@@H]2O[C@@]3(C)CC[C@H]4[C@H](C)CC[C@@H]([C@H]1C)[C@@]24OO3 [Artemether] | 98 | ≥ 153 | 147 (≈ 493 µM) | 127 (≈ 426 µM) | 53 to 98 (≈ 178 to 328 µM) | 380 (≈ 1270 µM) | – | – | – | EC50 ([1]; Severe acute respiratory syndrome coronavirus 2, Huh7.5, 72 h): 64 µg/mL (≈ 214 µM); inhibition at 65 µg/mL ([1]; Severe acute respiratory syndrome coronavirus 2, Huh7.5, read-out: virus inhibition): 56%; inhibition at 153 µg/mL ([3]; Severe acute respiratory syndrome coronavirus 2, Vero C1008, pretreatment assay, 153 µg/mL, read-out: virus inhibition): 52%; concentration with close to complete virus inhibition ([4]; A549-hACE2 cells, treatment assay): 92 µg/mL; EC50 [4]: 53 µg/mL (≈ 178 µM); CC50 at 48 h (in vitro): 360 µg/mL (≈ 1210 µM)
2 | C[C@@H]1CC[C@H]2[C@@H](C)C(=O)O[C@@H]3O[C@@]4(C)CC[C@@H]1[C@]32OO4 [Artemisinin] | 151 | 1208 | 238 (≈ 843 µM) | 5070 (≈ 17900 µM) | – | 1530 (≈ 5410 µM) | 8220 (≈ 29100 µM) | > 208 | 168 (≈ 595 µM) | virus inhibition ([1]; Huh7.5 cells, treatment assay, highest evaluated (non-cytotoxic) concentration 208 µg/mL): no significant virus inhibition; inhibition at 208 µg/mL ([1]; Severe acute respiratory syndrome coronavirus 2, Huh7.5 cells, treatment assay, highest evaluated (non-cytotoxic) concentration 208 µg/mL): < 50%; effect on plaque formation (in words) [8]: little antiviral activity; concentration at which almost / close to complete virus inhibition was achieved ([3]; pretreatment assay): 893 µg/mL
3 | C[C@H]1[C@H](OC(=O)CCC(=O)O)O[C@@H]2O[C@@]3(C)CC[C@H]4[C@H](C)CC[C@@H]1[C@@]24OO3 [Artesunate] | 7 | 15 | – | 93 (≈ 242 µM) | 7 to 12 (≈ 18.2 to 31.2 µM) | 27 (≈ 70.2 µM) | 41 (≈ 107 µM) | 11 (≈ 28.6 µM) | 12 (≈ 31.2 µM) | concentration with close to complete virus inhibition ([1]; Huh7.5 cells, treatment assay): 22 µg/mL; tissue concentrations (lung, kidney, intestine, spleen) versus plasma concentrations [9]: several-fold higher; inhibition of viral infection ([10]; 14 µg/mL, added 0 h post inoculation, present during the 2 h viral infection phase): did not result in inhibition; inhibition at 14 µg/mL ([10]; Severe acute respiratory syndrome coronavirus 2, added 2 h post inoculation): ≥ 80%; inhibition at 14 µg/mL ([10]; Severe acute respiratory syndrome coronavirus 2, added 4 h post inoculation): ≥ 80%; inhibition at 14 µg/mL ([10]; Severe acute respiratory syndrome coronavirus 2, added 6 h post inoculation): ≥ 80%; pEC50 ([2]; Severe acute respiratory syndrome coronavirus 2, Vero C1008, VeroE6 treatment assay, read-out: EC50): 4.74; inhibition at 15 µg/mL ([3]; Severe acute respiratory syndrome coronavirus 2, Vero C1008, pretreatment assay, 15 µg/mL (highest evaluated concentration), read-out: virus inhibition): 69%; inhibition at 14 µg/mL ([4]; Severe acute respiratory syndrome coronavirus 2, A549-hACE2 cells, treatment assay, highest evaluated concentration 14 µg/mL): 63%; pEC50 [11]: 4.89
